# According to US11564923B2, “Compounds and pharmaceutical compositions thereof for the treatment of inflammatory disorders” (Galapagos NV, priority 2017, dated 2023):
# pIC50: −log10 of the molar value. Structures can show the parent of a compound that is named as a salt.
# Key:
# [1] = molecular target: T1, Recombinant human JAK1 (catalytic domain, amino acids 866-1154) (Homo sapiens, UniProt P23458); test: JAK1 inhibition assay; assay type: biochemical; details: read-out: JAK1 potency IC50
# T1 construct: catalytic domain, amino acids 866-1154
# T1 sequence (P23458 866-1154): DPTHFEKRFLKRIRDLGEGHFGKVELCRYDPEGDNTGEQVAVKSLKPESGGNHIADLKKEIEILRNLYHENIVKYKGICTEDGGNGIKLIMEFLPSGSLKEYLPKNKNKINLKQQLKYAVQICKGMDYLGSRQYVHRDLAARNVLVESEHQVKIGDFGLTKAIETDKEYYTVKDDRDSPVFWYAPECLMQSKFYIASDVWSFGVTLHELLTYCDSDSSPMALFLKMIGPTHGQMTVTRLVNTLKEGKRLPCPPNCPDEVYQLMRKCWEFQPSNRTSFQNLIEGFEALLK
# Protocol: (§1) After 60 min at room temperature, reactions are stopped by adding 20 μL/well of detection mixture (1× detection buffer (Perkin Elmer, catalog number CR97-100), 0.5 nM Europium-anti-phosphotyrosine (PT66) (Perkin Elmer, catalog number AD0068/AD0069), 10 mM EDTA). […] Kinase activity is calculated by subtracting the ratio obtained in the presence of a positive control inhibitor (1 μM staurosporine) from the ratio obtained in the presence of vehicle. The ability of a test compound to inhibit this activity (or percentage inhibition) is determined as:
# (§2) [formula] wherein Fluorescent ratio test compound=ratio RFU665/RFU615*1000 determined for sample with test compound present Fluorescent ratio control=ratio RFU665/RFU615*1000 determined for sample with positive control inhibitor Fluorescent ratio vehicle=ratio RFU665/RFU615*1000 determined in the presence of vehicle
# (§3) Dose dilution series were prepared for the compounds enabling the testing of dose-response effects in the JAK1 assay and the calculation of the IC50 for the compound. Each compound is routinely tested at concentration of 20 μM followed by a 1/5 serial dilution, 10 points in a final concentration of 1% DMSO. […] The data are expressed as the average IC50 from the assays.
# [2] = molecular target: T2, Recombinant human JAK2 (catalytic domain, amino acids 808-1132) (Homo sapiens, UniProt O60674); test: JAK2 inhibition assay; assay type: biochemical; details: read-out: JAK2 potency IC50; further: 0.7 µM ATP
# T2 construct: catalytic domain, amino acids 808-1132
# T2 sequence (O60674 808-1132): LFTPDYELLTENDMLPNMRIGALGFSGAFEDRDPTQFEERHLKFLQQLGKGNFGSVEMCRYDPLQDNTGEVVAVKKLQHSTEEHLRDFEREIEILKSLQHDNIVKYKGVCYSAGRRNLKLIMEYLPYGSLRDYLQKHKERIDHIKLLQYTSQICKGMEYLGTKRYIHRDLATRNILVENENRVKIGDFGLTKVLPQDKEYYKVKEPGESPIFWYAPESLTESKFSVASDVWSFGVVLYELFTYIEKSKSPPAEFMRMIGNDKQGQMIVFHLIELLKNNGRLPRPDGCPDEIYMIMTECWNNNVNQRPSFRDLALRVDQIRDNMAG
# Protocol: as §1, with “CR97-100) with” for “CR97-100),”, “AD0068/AD0069) and” for “AD0068/AD0069),”
# as §2
# as §3, with “are” for “were”, “compound” for “the compounds”, “JAK2” for “JAK1”
# [3] = molecular target: Recombinant human JAK3 catalytic domain (amino acids 781-1124) (Homo sapiens, UniProt P52333); test: JAK3 inhibition assay; assay type: biochemical
# Sequence of Recombinant human JAK3 catalytic domain (amino acids 781-1124) (P52333 781-1124): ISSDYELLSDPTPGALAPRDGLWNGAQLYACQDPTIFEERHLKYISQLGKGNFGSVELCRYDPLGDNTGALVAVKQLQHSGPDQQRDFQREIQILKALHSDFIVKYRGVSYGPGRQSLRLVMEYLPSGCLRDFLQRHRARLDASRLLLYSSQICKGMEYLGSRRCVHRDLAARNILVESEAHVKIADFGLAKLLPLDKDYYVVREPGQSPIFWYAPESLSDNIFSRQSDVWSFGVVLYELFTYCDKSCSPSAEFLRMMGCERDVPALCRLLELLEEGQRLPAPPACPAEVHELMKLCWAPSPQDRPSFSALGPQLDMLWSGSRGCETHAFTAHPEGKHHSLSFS
# Protocol: After 45 min at 30° C., reactions are stopped by adding 25 μL/well of 150 mM phosphoric acid. […] Plates are washed 6 times with 300 μL per well of a 75 mM phosphoric acid solution and the bottom of the plates is sealed. […] Kinase activity is calculated by subtracting counts per min (cpm) obtained in the presence of a positive control inhibitor (10 μM staurosporine) from cpm obtained in the presence of vehicle. The ability of a test compound to inhibit this activity (or percentage inhibition) is determined as: […]
# cpm test compound=cpm determined for sample with test compound present cpm control=cpm determined for sample with positive control inhibitor cpm vehicle=cpm determined in the presence of vehicle
# Dose dilution series were prepared for the compounds enabling the testing of dose-response effects in the JAK3 assay and the calculation of the IC50 for each compound. Each compound is routinely tested at concentration of 20 μM followed by a 1/5 serial dilution, 10 points in a final concentration of 1% DMSO.
# [4] = molecular target: T3, Recombinant human TYK2 catalytic domain (amino acids 871-1187) (Homo sapiens, UniProt P29597); test: TYK2 radioactive assay polyGT substrate; assay type: biochemical; further: 0.1 µM ATP
# T3 construct: catalytic domain (amino acids 871-1187)
# T3 sequence (P29597 871-1187): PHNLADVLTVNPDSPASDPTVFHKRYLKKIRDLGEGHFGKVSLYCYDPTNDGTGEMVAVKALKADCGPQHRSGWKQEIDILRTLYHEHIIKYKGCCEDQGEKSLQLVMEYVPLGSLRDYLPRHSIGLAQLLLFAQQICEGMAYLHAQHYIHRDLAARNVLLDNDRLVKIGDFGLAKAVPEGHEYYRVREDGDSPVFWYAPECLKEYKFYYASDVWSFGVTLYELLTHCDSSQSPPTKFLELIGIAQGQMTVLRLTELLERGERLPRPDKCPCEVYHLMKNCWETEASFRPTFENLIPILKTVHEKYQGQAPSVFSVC
# Outline: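 Reaction at 30° C. for 120 min, ended with 150 mM phosphoric acid, washed, counted; percent inhibition scaled between vehicle and 10 μM staurosporine cpm.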
# [5] = tested on: IFNα activation of STAT1 in PBMC; test: IFNα activation of STAT1 in PBMC; assay type: cell-based; details: Homo sapiens; IFNα activation of STAT1 in PBMC; average IC50; read-out: IFNα signaling inhibitory potency IC50
# Protocol: After these 2 wash steps the cell pellet is dissolved in ammonium chloride buffer (1.5 M NH4Cl, 100 mM NaHCO3 and 10 mM Na2.EDTA) for lysis of the red blood cells.
# PBMC are treated with test compound for 30 min at 37° C. 5% CO2. […] After 30 min of test compound/vehicle pre-treatment, PBMC are stimulated for 30 min at 37° C. 5% CO2 with recombinant human IFNα (PeproTech, catalog number 300-02A) at a final concentration of 5 ng/mL by addition of 20 μL (10× concentrated) cytokine trigger to obtain a final volume of 200 μL per well.
# After 30 min of cytokine stimulation, 200 μL of cell suspension is transferred to a 96-well V-bottom plate, centrifugated for 5 min at 1000 rpm to pellet cells, followed by removal of supernatant.
# (§4) The percentage inhibition is calculated as: […]
# RCLU(vehicle control): Relative Chemiluminescent signal determined in presence of vehicle and trigger
# RCLU(test compound): Relative Chemiluminescent signal determined in presence of test compounds and trigger
# RCLU(positive control): Relative Chemiluminescent signal determined in presence of positive control and trigger
# PIN values are plotted for compounds tested in dose-response and average IC50 values are derived using GraphiPad Prism Software applying non-linear regression (sigmoidal) curve fitting.
# [6] = tested on: IL-12 activation of STAT4 in NK-92 cells; test: IL-12 activation of STAT4 in NK-92 cells using AphaLISA SureFire technology; assay type: cell-based; details: Homo sapiens, NK92; IL-12 activation of STAT4 in NK-92 cells, AlphaLISA SureFire; average IC50; read-out: IL12 pSTAT4 IC50
# Protocol: IL-2 is added freshly to the medium with each medium refreshment step. Cells are cultured in a humidified incubator at 37° C. 5% CO2.
# A subcultured fraction of NK-92 cells is washed once in culture medium without rhIL-2 the day before the experiment and incubated overnight in a culture flask.
# 5% CO2. […] NK-92 cells are triggered with rhIL-12 for 30 min at 37° C. 5% CO2.
# After 30 min of cytokine stimulation the cells are lysed by addition of 15 μL 5× lysis buffer (supplemented with the AlphaLISA kit). After 10 minutes, plates are frozen at −80° C. overnight and the next day the levels of phospho-STAT4 are quantified using the AlphaLISA SureFire ULTRA p-STAT4 (Tyr693) (Perkin Elmer, Catalogue number ALSU-PST4-A10K) according to the manufacturers instructions. AlphaLISA signal (relative light units) is measured using an Envision (Perkin Elmer).
# as §4
# RLU(trigger/veh): Relative lumescent signal determined in presence of vehicle and trigger
# RLU(test compound): Relative luminescent signal determined in presence of test compounds and trigger
# PIN values are plotted for compounds tested in dose-response and IC50 values are derived using GraphPad Prism Software applying non-linear regression (sigmoidal) curve fitting. The data are expressed as the average IC50 from different experiments.
SMILES,pIC50 [1],pIC50 [2],pIC50 [3],pIC50 [4],pIC50 [6],pIC50 [5]
"Cn1cnc2c(Nc3cc(N)ncn3)cc(NC(C3CC3)C3CC3)nc21 [Compound 95, N7-(6-aminopyrimidin-4-yl)-N5-(dicyclopropylmethyl)-3-methyl-imidazo[4,5-b]pyridine-5,7-diamine]",6.60,7.42,6.75,7.58,,
"CCNC(=O)c1cnc(Nc2cc(Oc3cnc(C#N)cc3C)nc3c2ncn3C)cc1C [Compound 64, 6-[[5-[(6-cyano-4-methyl-3-pyridyl)oxy]-3-methyl-imidazo[4,5-b]pyridin-7-yl]amino]-N-ethyl-4-methyl-pyridine-3-carboxamide]",6.46,6.67,5.49,7.29,,
"COCCCNC(=O)c1ccc(Nc2cc(Oc3cnc(C#N)cc3C)nc3c2ncn3C)nc1 [Compound 100, 6-[[5-[(6-cyano-4-methyl-3-pyridyl)oxy]-3-methyl-imidazo[4,5-b]pyridin-7-yl]amino]-N-(3-methoxypropyl)pyridine-3-carboxamide]",7.20,7.40,6.04,8.09,,
"COC(C)CCNc1cc(Nc2cc(Oc3cnc(C#N)cc3C)nc3c2ncn3C)ncn1 (centres unmarked) [Compound 37, 5-{7-[6-(3-Methoxy-butylamino)-pyrimidin-4-ylamino]-3-methyl-3H-imidazo[4,5-b]pyridin-5-yloxy}-4-methyl-pyridine-2-carbonitrile]",7.07,7.70,6.36,8.44,,
"CCNC(=O)c1ccc(Nc2cc(Oc3cnc(C#N)cc3C)nc3c2ncn3C)nc1C [Compound 78, 6-[[5-[(6-cyano-4-methyl-3-pyridyl)oxy]-3-methyl-imidazo[4,5-b]pyridin-7-yl]amino]-N-ethyl-2-methyl-pyridine-3-carboxamide]",7.22,7.50,6.13,8.01,,
"Cc1cc(C#N)ncc1Oc1cc(Nc2ccc(CN(C)CCN(C)C)cn2)c2ncn(C)c2n1 [Compound 83, 5-[7-[[5-[[2-(dimethylamino)ethyl-methylamino]methyl]pyridin-2-yl]amino]-3-methylimidazo[4,5-b]pyridin-5-yl]oxy-4-methylpyridine-2-carbonitrile formate salt]",6.56,7.57,,7.79,6.01,6.86
"Cc1cc(C#N)ncc1Oc1cc(Nc2ccc(C(=O)NCC(C)O)nc2)c2ncn(C)c2n1 (centres unmarked) [Compound 30, 5-[5-(6-Cyano-4-methyl-pyridin-3-yloxy)-3-methyl-3H-imidazo[4,5-b]pyridin-7-ylamino]-pyridine-2-carboxylic acid (2-hydroxy-propyl)-amide]",6.40,6.11,,7.25,,
"Cc1cc(C#N)ncc1Oc1cc(Nc2ccc(C(=O)N3CCOCC3)nn2)c2ncn(C)c2n1 [Compound 108, 4-methyl-5-[3-methyl-7-[[6-(morpholine-4-carbonyl)pyridazin-3-yl]amino]imidazo[4,5-b]pyridin-5-yl]oxypyridine-2-carbonitrile]",,,,8.58,7.03,7.28

# Further lines, with some results ahead:
pIC50 [1],pIC50 [2],pIC50 [3],pIC50 [4],pIC50 [6],SMILES,pIC50 [5]
7.23,7.66,6.31,8.19,,"Cc1cc(C#N)ncc1Oc1cc(Nc2ccc(N3CCC(CO)CC3)cn2)c2ncn(C)c2n1 [Compound 184, 5-[7-[[5-[4-(hydroxymethyl)-1-piperidyl]-2-pyridyl]amino]-3-methyl-imidazo[4,5-b]pyridin-5-yl]oxy-4-methyl-pyridine-2-carbonitrile]",
,,,8.78,6.67,"Cc1cc(C#N)ncc1Oc1cc(Nc2ccc(C(=O)N3CCOC[C@@H]3C)cn2)c2ncn(C)c2n1 [Compound 147, 4-methyl-5-[3-methyl-7-[[5-[(3S)-3-methylmorpholine-4-carbonyl]pyridin-2-yl]amino]imidazo[4,5-b]pyridin-5-yl]oxypyridine-2-carbonitrile]",6.92
,,,8.68,6.80,"Cc1cc(C#N)ncc1Oc1cc(Nc2ccc(C(=O)N3C[C@@H](C)O[C@@H](C)C3)cn2)c2ncn(C)c2n1 [Compound 148, 4-methyl-5-[3-methyl-7-[[5-[rac-(2R,6S)-2,6-dimethylmorpholine-4-carbonyl]pyridin-2-yl]amino]imidazo[4,5-b]pyridn-5-yl]oxypyridine-2-carbonitrile]",6.85
,,,8.74,5.12,"Cc1cc(C#N)ncc1Oc1cc(Nc2ccc(C(=O)N3C[C@@H](O)[C@H](N(C)C)C3)cn2)c2ncn(C)c2n1 [Compound 153, 5-{7-[5-((3R,4R)-3-Dimethylamino-4-hydroxy-pyrrolidine-1-carbonyl)-pyridin-2-ylamino]-3-methyl-3H-imidazo[4,5-b]pyridin-5-yloxy}-4-methyl-pyridine-2-carbonitrile]",6.63
